# Source: article PMC2287205 (Analytical and Bioanalytical Chemistry, 2008)
# Experiments:
# [1] = Microsomal incubation with PB-induced rat liver microsomes; details: 100 μM zearalenone, 120 min, 37 °C
# ERα = ERα (Homo sapiens, UniProt P03372); assay type: binding; details: mixture of five estrogenic compounds separated by gradient HPLC (Fig. 7)
# ERα, sequence (P03372 311-547): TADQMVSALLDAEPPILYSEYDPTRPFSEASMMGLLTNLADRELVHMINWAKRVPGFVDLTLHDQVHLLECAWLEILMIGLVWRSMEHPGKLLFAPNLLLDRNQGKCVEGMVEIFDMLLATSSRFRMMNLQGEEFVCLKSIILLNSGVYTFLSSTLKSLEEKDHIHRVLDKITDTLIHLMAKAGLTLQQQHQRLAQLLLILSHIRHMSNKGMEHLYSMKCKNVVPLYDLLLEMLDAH
SMILES,Metabolism by rat liver microsomes [1],ERα bioaffinity detected in HRS ERα FP trace (ERα)
C[C@H]1CCCC(=O)CCC/C=C/c2cc(O)cc(O)c2C(=O)O1 [zearalenone],metabolized by rat liver microsomes into at least three major metabolites,possible to detect the ERα bioaffinities
"O=c1oc2cc(O)ccc2cc1-c1ccc(O)cc1 [coumarol, 7-Hydroxy-3-p-hydroxyphenylcoumarine]",–,possible to detect the ERα bioaffinities
